From patent publication US9777002B2, “Inhibitors of the renal outer medullary potassium channel” (Merck Sharp & Dohme Corp., priority 2012, dated 2017)

Target: T1, hROMK (hKir1.1) (Homo sapiens, UniProt P48048)
T1 construct: expressed in transfected cells
T1 sequence (P48048 1-391): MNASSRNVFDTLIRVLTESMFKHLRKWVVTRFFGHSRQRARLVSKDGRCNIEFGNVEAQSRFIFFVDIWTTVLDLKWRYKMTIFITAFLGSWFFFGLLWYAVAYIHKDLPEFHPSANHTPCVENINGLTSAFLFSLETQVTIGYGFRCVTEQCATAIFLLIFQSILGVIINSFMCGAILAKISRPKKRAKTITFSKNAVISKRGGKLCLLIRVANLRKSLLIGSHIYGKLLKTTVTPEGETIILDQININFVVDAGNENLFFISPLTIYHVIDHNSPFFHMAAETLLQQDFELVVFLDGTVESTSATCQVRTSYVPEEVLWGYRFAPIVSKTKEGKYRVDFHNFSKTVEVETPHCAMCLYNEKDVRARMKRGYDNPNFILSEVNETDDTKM
Test: Thallium Flux Assay
Type: cell-based
Settings: HEK293 cells stably expressing hROMK (hKir1.1)
In short: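 HEK293 cells stably expressing hROMK were loaded with FluxOR dye for 90 min, then incubated with compound in probenecid assay buffer plus 0.3 mM ouabain, pH 7.4, for 30 min at 23-25 °C. Flux was triggered with 3 mM thallium/0.3 mM potassium (final) and read on FLIPR-Tetra for ~10 min. IC50 was calculated against the signal blocked by 3 μM control inhibitor.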

Cc1c([C@@H](O)CN2CCC(C3(NC(=O)c4ccc(-n5cnnn5)cn4)CCC3)C2)ccc2c1COC2=O (stereo partly drawn) [Example 70, N-(1-(1-((R)-2-Hydroxy-2-(4-methyl-1-oxo-1,3-dihydroisobenzofuran-5-yl)ethyl)pyrrolidin-3-yl)cyclobutyl)-5-(1H-tetrazol-1-yl)picolinamide]
IC50: 760 nM

Cc1c([C@@H](O)CN2CC3C(C2)C3NC(=O)c2ccc(C#N)cn2)ccc2c1COC2=O (stereo partly drawn) [Example 33, 5-Cyano-N-(3-((R)-2-hydroxy-2-(4-methyl-1-oxo-1,3-dihydroisobenzofuran-5-yl)ethyl)-3-azabicyclo[3.1.0]hexan-6-yl)picolinamide]
IC50: 60 nM

Cc1c([C@@H](O)CN2CCC(CNC(=O)c3ccc(-n4cnnn4)nc3)(c3ccccc3)C2)ccc2c1COC2=O (single isomer, unassigned) [81 A]
IC50: 620 nM

Cc1c([C@@H](O)CN2CC3C(C2)C3NC(=O)c2ccc(-n3cnnn3)cn2)ccc2c1COC2=O (stereo partly drawn) [Example 56, N-(3-((R)-2-Hydroxy-2-(4-methyl-1-oxo-1,3-dihydroisobenzofuran-5-yl)ethyl)-3-azabicyclo[3.1.0]hexan-6-yl)-5-(1H-tetrazol-1-yl)picolinamide]
IC50: 710 nM

Cc1c([C@@H](O)CN2CC[C@@H](NC(=O)c3ccc(-n4cnnn4)cn3)C2)ccc2c1COC2=O [Example 62, N-((R)-1-((R)-2-Hydroxy-2-(4-methyl-1-oxo-1,3-dihydroisobenzofuran-5-yl)ethyl)pyrrolidin-3-yl)-5-(1H-tetrazol-1-yl)picolinamide]
IC50: 370 nM

Cc1c([C@@H](O)CN2CCC(NC(=O)c3ccc(C#N)nc3)C(F)C2)ccc2c1COC2=O (single isomer, unassigned) [46 A]
IC50: 520 nM

Cc1c([C@@H](O)CN2CCC(C)(CNC(=O)c3ccc(-n4cnnn4)cn3)C2)ccc2c1COC2=O (single isomer, unassigned) [69 B]
IC50: 490 nM

Cc1c([C@@H](O)CN2CC[C@H](NC(=O)c3ccc(-n4cnnn4)nc3)[C@H](F)C2)ccc2c1COC2=O (single isomer, unassigned) [50 B]
IC50: 930 nM

Cc1c([C@@H](O)CN2CCC(C)(NC(=O)c3cnc(-n4cnnn4)cn3)CC2)ccc2c1COC2=O [Example 72, (R)-N-(1-(2-Hydroxy-2-(4-methyl-1-oxo-1,3-dihydroisobenzofuran-5-yl)ethyl)-4-methylpiperidin-4-yl)-5-(1H-tetrazol-1-yl)pyrazine-2-carboxamide]
IC50: 80 nM

COc1ccc(C(=O)NC2CCN(CC(O)c3ccc4c(c3C)COC4=O)CC2)cc1C#N (stereo not drawn) [Example 10, 3-Cyano-N-(1-(2-hydroxy-2-(4-methyl-1-oxo-1,3-dihydroisobenzofuran-5-yl)ethyl)piperidin-4-yl)-4-methoxybenzamide]
IC50: 60 nM

Cc1c(CCN2CCC(NC(=O)c3ccc(-n4cnnn4)nc3)CC2)ccc2c1COC2=O [Example 3, N-(1-(2-(4-Methyl-1-oxo-1,3-dihydroisobenzofuran-5-yl)ethyl)piperidin-4-yl)-6-(1H-tetrazol-1-yl)nicotinamide]
IC50: 500 nM

Cc1c([C@@H](O)CN2CCC(NC(=O)c3ccc(-n4cnnn4)nc3)CC2)ccc2c1COC2=O [Example 49, (R)-N-(1-(2-Hydroxy-2-(4-methyl-1-oxo-1,3-dihydroisobenzofuran-5-yl)ethyl)piperidin-4-yl)-6-(1H-tetrazol-1-yl)nicotinamide]
IC50: 150 nM

Cc1c([C@@H](O)CN2CCC(NC(=O)c3ccc(-n4cnnn4)cc3)CC2)ccc2c1COC2=O [Example 34, (R)-N-(1-(2-Hydroxy-2-(4-methyl-1-oxo-1,3-dihydroisobenzofuran-5-yl)ethyl)piperidin-4-yl)-4-(1H-tetrazol-1-yl)benzamide]
IC50: 230 nM

Cc1c(CCN2CCC(NC(=O)c3ccc(C#N)c(F)c3)CC2)ccc2c1COC2=O [Example 11, 4-Cyano-3-fluoro-N-(1-(2-(4-methyl-1-oxo-1,3-dihydroisobenzofuran-5-yl)ethyl)piperidin-4-yl)benzamide]
IC50: 30 nM

Cc1c([C@@H](O)CN2CCC(NC(=O)c3ccc(-n4cncn4)cc3)CC2)ccc2c1COC2=O [Example 74, (R)-N-(1-(2-Hydroxy-2-(4-methyl-1-oxo-1,3-dihydroisobenzofuran-5-yl)ethyl)piperidin-4-yl)-4-(1H-1,2,4-triazol-1-yl)benzamide]
IC50: 630 nM

CO[C@@H]1CN(C[C@H](O)c2ccc3c(c2C)COC3=O)CC[C@@H]1NC(=O)c1ccc(-n2cnnn2)nc1 (single isomer, unassigned) [54 B]
IC50: 340 nM

CO[C@@H]1CN(C[C@H](O)c2ccc3c(c2C)COC3=O)CC[C@@H]1NC(=O)c1ccc(-n2cnnn2)nc1 (single isomer, unassigned) [54 A]
IC50: 760 nM

Cc1cc(C(=O)NC2CCN(C[C@H](O)c3ccc4c(c3C)COC4=O)CC2)ncc1-n1cnnn1 [Example 59, (R)-N-(1-(2-Hydroxy-2-(4-methyl-1-oxo-1,3-dihydroisobenzofuran-5-yl)ethyl)piperidin-4-yl)-4-methyl-5-(1H-tetrazol-1-yl)picolinamide]
IC50: 90 nM

Cc1c([C@@H](O)CN2CCC(CNC(=O)c3ccc(-n4cnnn4)nc3)(c3ccccc3)C2)ccc2c1COC2=O (single isomer, unassigned) [81 B]
IC50: 160 nM

Cc1c([C@@H](O)CN2CCC(NC(=O)c3cnc(-n4cnnn4)cn3)CC2)ccc2c1COC2=O [Example 64, (R)-N-(1-(2-Hydroxy-2-(4-methyl-1-oxo-1,3-dihydroisobenzofuran-5-yl)ethyl)piperidin-4-yl)-5-(1H-tetrazol-1-yl)pyrazine-2-carboxamide]
IC50: 470 nM

Cc1nc(C(=O)N[C@H]2CCN(C[C@H](O)c3ccc4c(c3C)COC4=O)C[C@H]2F)ccc1C#N (single isomer, unassigned) [44 B]
IC50: 260 nM

Cc1c([C@@H](O)CN2CCC(C3(NC(=O)c4ccc(-n5cnnn5)nc4)CCC3)C2)ccc2c1COC2=O (single isomer, unassigned) [90 A]
IC50: 740 nM

Cc1c([C@@H](O)CN2CCC(N3Cc4cc(-n5cnnn5)ccc4C3=O)CC2)ccc2c1COC2=O [Example 91, (R)-2-(1-(2-Hydroxy-2-(4-methyl-1-oxo-1,3-dihydroisobenzofuran-5-yl)ethyl)piperidin-4-yl)-5-(1H-tetrazol-1-yl)isoindolin-1-one]
IC50: 130 nM

Cc1c([C@@H](O)CN2CC[C@H](NC(=O)c3ccc(C#N)cn3)[C@H](F)C2)ccc2c1COC2=O (single isomer, unassigned) [43 B]
IC50: 180 nM

Cc1cc(C(=O)NCC2CCN(C[C@H](O)c3ccc4c(c3C)COC4=O)C2)ncc1-n1cnnn1 (stereo partly drawn) [Example 85, N-((1-((R)-2-Hydroxy-2-(4-methyl-1-oxo-1,3-dihydroisobenzofuran-5-yl)ethyl)pyrrolidin-3-yl)methyl)-4-methyl-5-(1H-tetrazol-1-yl)picolinamide]
IC50: 370 nM

Cc1c([C@@H](O)CN2CCC(C)(NC(=O)c3ccc(-n4cnnn4)nn3)CC2)ccc2c1COC2=O [Example 71, (R)-N-(1-(2-Hydroxy-2-(4-methyl-1-oxo-1,3-dihydroisobenzofuran-5-yl)ethyl)-4-methylpiperidin-4-yl)-6-(1H-tetrazol-1-yl)pyridazine-3-carboxamide]
IC50: 280 nM

Cc1c([C@@H](O)CN2CCC(CNC(=O)c3ccc(-n4cnnn4)cn3)(c3ccccc3)C2)ccc2c1COC2=O (stereo partly drawn) [Example 68, N-((1-((R)-2-Hydroxy-2-(4-methyl-1-oxo-1,3-dihydroisobenzofuran-5-yl)ethyl)-3-phenylpyrrolidin-3-yl)methyl)-5-(1H-tetrazol-1-yl)picolinamide]
IC50: 630 nM
